Measurements from the NIST ThermoML archive (doi:10.1021/acs.jced.5b01003).
Values joined by “and” are separate entries in the source; they are usually repeats but may differ in a detail not shown here. Equal values may be shown once.

Conditions: Liquid, Transpiration method

CNCCN [N-methylethylenediamine]
Conditions | vapor or sublimation pressure [kPa]
272.2 K | 0.2731
274.3 K | 0.3181
275.4 K | 0.3449
278 K | 0.4148
278.6 K | 0.4455
279.4 K | 0.4695
280.2 K | 0.4943
281.3 K | 0.5355
282.3 K | 0.5867
283.1 K | 0.6075
284.1 K | 0.6579
284.9 K | 0.6972
286.3 K | 0.7738
287.8 K | 0.8601
289.3 K | 0.9404
290.6 K | 1.034
292.2 K | 1.176
294.6 K | 1.394
296.2 K | 1.541
298.1 K | 1.762
300.2 K | 2.017
302.2 K | 2.275

CNCCN(C)C [N,N,N'-trimethylethylenediamine]
Conditions | vapor or sublimation pressure [kPa]
274.2 K | 0.5021
276.7 K | 0.605
281.8 K | 0.8858
286.8 K | 1.271
291 K | 1.686
296.3 K | 2.403
298.2 K | 2.733
301 K | 3.259
303.2 K | 3.811
304.1 K | 4.074
305.4 K | 4.402

CN(C)CCN [2-dimethylamino-1-ethylamine]
Conditions | vapor or sublimation pressure
273.8 K | 0.7397 kPa
274.2 K | 0.7526 kPa
275.2 K | 0.808 kPa
276.7 K | 0.8869 kPa
278.2 K | 0.9687 kPa
280.7 K | 1.114 kPa
283.2 K | 1.309 kPa
285.6 K | 1.561 kPa
288.2 K | 1.821 kPa
290.7 K | 2.088 kPa
293.2 K | 2.392 kPa
295.6 K | 2.763 kPa
298.2 K | 3.186 kPa and 3.282 kPa
300.7 K | 3.755 kPa and 3.727 kPa
303.2 K | 4.331 kPa and 4.291 kPa

CNCCNC [N1,N2-dimethylethane-1,2-diamine]
Conditions | vapor or sublimation pressure [kPa]
279.2 K | 0.4258
281.4 K | 0.5045
283.3 K | 0.5851
285.6 K | 0.6936
288.2 K | 0.8579
290.6 K | 1.023
293.2 K | 1.228
295.8 K | 1.498
298.2 K | 1.781
300.7 K | 2.106
303.4 K | 2.477
305.6 K | 2.892
308.2 K | 3.408
310.7 K | 3.974
